Reference: patent publication US9242991B2, “Substituted fused heterocycles as c-Met tyrosine kinase inhibitors” (BETTA PHARMACEUTICALS CO., LTD, priority 2010, dated 2016)
Where “and” joins values, the source holds several entries; their conditions need not be identical. Equal entries are not always repeated.

Assays:
[1] = target: T1, c-Met phosphorylation (pY1349) in NCI-H460 cells (Homo sapiens, UniProt P08581); experiment: HGF Stimulated Met (pY1349) NCI-H460 Cell-based ELISA; details: for Mean (Counts − Blanks) / Mean of Activity (% Control) / Counts / Activity (% Control): 0.2 μM compound; for Mean of Activity (% Control): mean of replicates; for Counts / Activity (% Control): single replicates
T1 construct: host or cells: NCI-H460
T1 sequence (P08581 25-1390): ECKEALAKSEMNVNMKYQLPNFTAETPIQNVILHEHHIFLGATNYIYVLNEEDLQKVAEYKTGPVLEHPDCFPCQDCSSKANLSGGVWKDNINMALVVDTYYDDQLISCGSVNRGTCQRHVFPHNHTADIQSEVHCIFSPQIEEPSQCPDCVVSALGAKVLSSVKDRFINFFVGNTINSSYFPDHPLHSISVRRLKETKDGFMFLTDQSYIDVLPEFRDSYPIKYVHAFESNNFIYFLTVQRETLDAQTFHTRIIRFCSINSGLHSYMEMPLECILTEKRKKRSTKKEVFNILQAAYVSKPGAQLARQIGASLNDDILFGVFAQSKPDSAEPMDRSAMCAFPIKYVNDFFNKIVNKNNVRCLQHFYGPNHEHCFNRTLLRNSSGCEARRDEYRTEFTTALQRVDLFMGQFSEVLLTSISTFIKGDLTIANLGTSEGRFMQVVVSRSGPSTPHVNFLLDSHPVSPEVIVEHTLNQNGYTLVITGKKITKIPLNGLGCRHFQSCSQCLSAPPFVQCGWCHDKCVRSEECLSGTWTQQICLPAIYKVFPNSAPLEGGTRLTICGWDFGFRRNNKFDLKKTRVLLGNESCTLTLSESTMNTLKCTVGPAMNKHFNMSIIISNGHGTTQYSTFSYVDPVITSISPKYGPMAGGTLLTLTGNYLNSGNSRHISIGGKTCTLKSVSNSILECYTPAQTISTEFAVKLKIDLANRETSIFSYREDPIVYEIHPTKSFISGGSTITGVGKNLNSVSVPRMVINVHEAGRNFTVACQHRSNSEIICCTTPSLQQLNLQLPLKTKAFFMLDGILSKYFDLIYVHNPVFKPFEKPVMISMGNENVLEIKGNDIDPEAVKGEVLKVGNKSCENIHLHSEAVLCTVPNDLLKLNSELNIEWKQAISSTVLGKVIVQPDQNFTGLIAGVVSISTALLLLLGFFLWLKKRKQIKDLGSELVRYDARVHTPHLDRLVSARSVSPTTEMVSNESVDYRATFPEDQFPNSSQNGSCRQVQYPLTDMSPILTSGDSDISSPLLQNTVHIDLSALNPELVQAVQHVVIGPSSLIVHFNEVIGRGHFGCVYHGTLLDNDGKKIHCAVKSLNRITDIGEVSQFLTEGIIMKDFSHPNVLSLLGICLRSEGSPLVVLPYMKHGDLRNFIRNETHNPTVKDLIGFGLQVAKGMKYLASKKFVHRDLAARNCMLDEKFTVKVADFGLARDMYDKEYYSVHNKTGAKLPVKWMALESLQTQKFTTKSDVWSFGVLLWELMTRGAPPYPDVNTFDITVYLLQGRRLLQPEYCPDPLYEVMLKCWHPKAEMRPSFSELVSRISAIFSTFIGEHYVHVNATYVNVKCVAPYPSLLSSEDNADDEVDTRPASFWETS
Experimental: HGF Stimulated Met (pY1349) NCI-H460 Cell-based ELISA NCI-H460 cells (purchased from ATCC) are cultured in RPMI 1640 media (Invitrogen) supplemented with 10% Fetal Bovine Scrum (FBS) and plated (prior to becoming 70% confluent) in 96-well flat-bottom plates at a density of 20,000 cells per well in 80 μL volume. The cells are then incubated overnight in a cell culture incubator (5% CO2, 95% Relative Humidity (RH) and 37° C.) and allowed to attach to the plate. The following morning the cells are washed with 2 volumes of a Reduced Serum Media (RSM) (RPMI 1640 media supplemented with 0.5% FBS). After removal of the last wash, 80 µL of RSM is added to each well of the cell plates. The cell plates are incubated for 2.5 hours in a cell culture incubator, and then dosed with compounds. Compound inhibitors are first solubilized at 10 mM in 100% DMSO and then diluted to 100 μM with 2% DMSO RSM. Subsequently compound serial dilutions (1:3) are prepared over a 100 μM to 0.005 μM range. Cells are dosed with the addition of 20 μL of compound stock to produce a final DMSO concentration of 0.4% and a final compound concentration dose range between 20 and 0.001 μM. After dosing with compounds the cells plates are gently agitated to mix and then allowed to incubate for 30 min in a cell culture incubator. After dose completion, the cells are stimulated with the addition of 20 μL per well of Hepatocyte Growth Factor (HGF) at a final concentration of 100 ng/mL in RSM (all wells except MIN wells are stimulated, MIN wells are dosed with 20 μL RSM). After 10 min incubation in a cell culture incubator, the liquid is removed from the cell plate wells, and the cells are lysed by the addition of 50 μL of ice-cold Meso Scale Discovery® (MSD, Gaithersburg, Md.) IX Lysis Buffer (150 mM NaCl, 20 mM Tris, pH7.5, 1 mM EDTA, 1 mM ethylene glycol tetraacetic acid, and 1% TRITON® X-100) supplemented with Phosphatase I and II and Protease inhibitors (Sigma, St. Louis, Mo.). After lysis at RT for 30 min the lysates are transferred to and captured on a MSD® Multi-Spot 96-well. 4-spot PhosphoMet plate that is BSA-blocked (at 30 mg/mL Block A in IX Tris Wash Buffer) and then washed one time with Tris Wash Buffer. After 2 hours capture (at RT) the lysates are removed from the MSD® plate and the plate is washed with IX Tris Wash Buffer. After blotting, 25 μL of 5 nM Sulfo-Tag Anti-Total Met antibody (detection antibody, MSD® prepared in IX Tris Wash Buffer supplemented with 10 mg/mL BSA and 0.1% Blocker D-R (MSD®)) is added to the wells of the MSD® plate. After 1 hour capture (at RT) the MSD® plate wells are washed with IX Tris Wash Buffer, and then 150 μL of IX Read Buffer T (with surfactant, MSD®) is added. Immediately after the addition of the Read Buffer, the plates are analyzed with a SECTOR 6000 MSD® Imager plate reader. Relative IC50 values are determined using MSD activity units by calculating percent inhibition with respect to on-plate “MIN” and “MAX” controls and then fitting the percent inhibition values and ten-point dose response data to a four-parameter logistic equation. This assay has a Minimum Significant Ratio (MSR) of 2.06.

U87MG tumors = experiment: Xenograft tumor model, U87MG; assay type: in vivo, human; details: BID×35, athymic nude mice
Experimental: (§1) Human glioblastoma cells U87MG, human gastric cancer cells MKN45, human non small cell lung cancer cells H441, and human renal carcinoma cells Caki-1 are expanded in culture, harvested, and injected subcutaneous Iy onto the rear flank of athymic nude mice. Testing compound is prepared in an appropriate vehicle and is administered by oral gavage when tumors are established (7-21 days after implant). Tumor response is determined by tumor volume measurement performed twice a week during the course of treatment. Tumor volume inhibition (% growth inhibition) is calculated by comparing treated groups to a vehicle control group. Body weight is taken as a general measurement of toxicity. […] At 60 mg/kg dose (PO, BID×35), 82% growth inhibition is achieved. At 120 mg/kg dose (PO, BID×35), 92% growth inhibition reaches.

[2] = target: T2, c-Met phosphorylation in SI 14 tumors (human c-Met) (Homo sapiens, UniProt P08581); experiment: c-Met In Vivo Target Inhibition Assay (SI 14 tumors in nude mice, phosphor-Met ELISA); details: oral gavage, read-out: ED50 (dose that produces 50% inhibition in tumor)
T2 construct: host or cells: SI 14 (S114) cells as subcutaneous tumours in athymic nude mice
T2 sequence (P08581 25-1390): as above
Experimental: SI 14 cells (licensed from PHS, over-express both human HGF and human c-Met) are cultured in a growth media (Dulbecco's Modified Eagle Medium) supplemented with 10% fetal calf serum and expanded. Cells are harvested and washed twice with phosphate buffered saline and 2×10^6 cells are mixed with equal volume of BD Matrigel™ matrix (BD Bioscience, Franklin, N.J.), and injected subcutaneous Iy into the flank of nude mice (athymic nude, from Harlan, Indianapolis, Ind.). At day 8 after implant, compounds (formulated in 10% acacia or 1% carboxymethylcellulose/0.5% sodium lauryl sulfate/0.05% antifoam as suspension) are administered to animals by oral gavage at 50 mg/kg. Animals are sacrificed at 2 hours post dose, and tumors are harvested and stored frozen until needed.
Frozen tumors are pulverized using motar-pastel. The pulverized tissues are transferred to a tube containing Lysing Matrix D beads (MP Biomedicals, Solon, Ohio) and 600 μL lysis buffer (RIPA buffer, containing 50 mM Tris-HCl, pH7.4, 150 mM NaCl, 1% NP-40, 0.5% sodium deoxycholate, 0.1% SDS, from Boston Bioproducts). A FastPrep® Cell Disrupter (MP Biomedicals) is used to disrupt the tissue and lyse the cells. […] Protein concentration is determined by Bradford method. Tumor lysates are loaded onto MSD® phosphor-Met ELISA plates and phosphor-c-Met level is determined using the same protocol as H460 cell-based ELISA. […]

[3] = system: U87MG, MKN45, H441 and Caki-1 tumors; experiment: Xenograft Tumor Models (U87MG, MKN45, H441, Caki-1); assay type: in vivo, human; details: oral gavage, athymic nude mice
Experimental: as §1

Structure (SMILES) | Mean (Counts − Blanks) [1] | Mean of Activity (% Control) [1] [% Control] | Counts [1] | Activity (% Control) ([1]; 0.2 µM) | Activity (% Control) [1] [% Control] | IC50 ([1]; NCI-H460 cells, HGF 100 ng/mL, Example 1 value is average of n=6, read-out: IC50 (inhibition of c-Met phosphorylation in cells)) [µM] | ED50 [2] [mg/kg] | melting point [°C] | growth inhibition of U87MG tumors (U87MG tumors; 30 mg/kg PO) [%] | growth inhibition of U87MG tumors (U87MG tumors; 60 mg/kg PO) [%] | growth inhibition of U87MG tumors (U87MG tumors; 120 mg/kg PO) [%] | anti-tumor activity in xenograft models [3]
Cn1c(Nc2ccc(F)cc2)ncc(-c2ccc(Oc3ncnc4cc5c(cc34)OCCCO5)cn2)c1=O [Example 20, 5-[5-(8,9-Dihydro-7H-6,10-dioxa-1,3-diaza-cyclohepta[b]naphthalen-4-yloxy)-pyridin-2-yl]-2-(4-fluoro-phenylamino)-3-methyl-3H-pyrimidin-4-one] | 32073 | 39 | 34234 and 31716 | 44 % Control and 33 % Control | – | – | – | – | – | – | – | –
Cn1c(Nc2ccccc2)ncc(-c2ccc(Oc3ccnc4cc5c(cc34)OC(F)(F)O5)cn2)c1=O [Example 28, 5-[5-(2,2-Difluoro-[1,3]dioxolo[4,5-g]quinolin-8-yloxy)-pyridin-2-yl]-2-(phenylamino)-3-methyl-3H-pyrimidin-4-one] | 30 | 1 | 1070 and 793 | 1 % Control and 0 % Control | – | – | – | – | – | – | – | –
CN1CCOc2cc3ncnc(Oc4ccc(-c5cnc(Nc6ccc(F)cc6)n(C)c5=O)nc4)c3cc2OCC1 [Example 21, 2-(4-Fluoro-phenylamino)-3-methyl-5-[5-(9-methyl-8,9,10,11-tetrahydro-7H-6,12-dioxa-1,3,9-triaza-cyclonona[b]naphthalen-4-yloxy)-pyridin-2-yl]-3H-pyrimidin-4-one] | 29384 | 27 | 31741 and 28830 | 33 % Control and 20 % Control | – | – | – | – | – | – | – | –
Cn1c(Nc2ccccc2)ncc(-c2ccc(Oc3ccnc4cc5c(cc34)OCCOCCOCCOCCOCCO5)cn2)c1=O [Example 31, 5-[5-(2,5,8,11,14,17-Hexaoxa-21-aza-tricyclo[16.8.0.020,25]hexacosa-1(18), 19,21,23,25-pentaen-24-yloxy)-pyridin-2-yl]-3-methyl-2-phenylamino-3 H-pyrimidin-4-one] | 17936 | 37 | 20248 and 17427 | 43 % Control and 31 % Control | – | – | – | – | – | – | – | –
Cn1c(Nc2ccc(F)cc2)ncc(-c2ccc(Oc3ncnc4cc5c(cc34)OC(F)(F)O5)cn2)c1=O [Example 8, 5-[5-(2,2-Difluoro-[1,3]dioxolo[4,5-g]quinazolin-8-yloxy)-pyridin-2-yl]-2-(4-fluoro-phenylamino)-3-methyl-3H-pyrimidin-4-one] | 28728 | 24 | 30429 and 28830 | 27 % Control and 20 % Control | – | – | – | – | – | – | – | –

Now from value to compound, other results behind:

Mean (Counts − Blanks) [1] | Mean of Activity (% Control) [1] [% Control] | Counts [1] | Activity (% Control) ([1]; 0.2 µM) | Activity (% Control) [1] [% Control] | IC50 ([1]; NCI-H460 cells, HGF 100 ng/mL, Example 1 value is average of n=6, read-out: IC50 (inhibition of c-Met phosphorylation in cells)) [µM] | ED50 [2] [mg/kg] | melting point [°C] | Structure (SMILES) | growth inhibition of U87MG tumors (U87MG tumors; 30 mg/kg PO) [%] | growth inhibition of U87MG tumors (U87MG tumors; 60 mg/kg PO) [%] | growth inhibition of U87MG tumors (U87MG tumors; 120 mg/kg PO) [%] | anti-tumor activity in xenograft models [3]
29068 | 25 | 30847 and 29093 | 29 % Control and 21 % Control | – | – | – | – | Cn1c(Nc2ccc(F)cc2)ncc(-c2ccc(Oc3ncnc4cc5c(cc34)OCCOCCOCCO5)cn2)c1=O [Example 6, 2-(4-Fluoro-phenylamino)-5-[5-(7,8,10,11,13,14-hexahydro-6,9,12,15-tetraoxa-1,3-diaza-cyclododeca[b]naphthalen-4-yloxy)-pyridin-2-yl]-3-methyl-3H-pyrimidin-4-one] | – | – | – | –
50 | 0 | 1008 and 895 | – | 0 | 0.0352 | 2.9 | 188 to 190 | O=C(Nc1ccc(Oc2ncnc3cc4c(cc23)OCCOCCOCCO4)c(F)c1)c1c[nH]cc(-c2ccc(F)cc2)c1=O [Example 1, 5-(4-Fluoro-phenyl)-4-oxo-1,4-dihydro-pyridine-3-carboxylic acid [3-fluoro-4-(7,8,10,11,13,14-hexahydro-6,9,12,15-tetraoxa-1,3-diaza-cyclododeca[b]naphthalen-4-yloxy)-phenyl]-amide] | 59 | 82 | 92 | excellent dose dependent anti-tumor activity
27649 | 19 | 28364 and 28738 | 18 % Control and 20 % Control | – | – | – | – | O=C(Nc1ccc(Oc2ncnc3cc4c(cc23)OCO4)c(F)c1)c1c[nH]cc(-c2ccc(F)cc2)c1=O [Example 9, 5-(4-Fluoro-phenyl)-4-oxo-1,4-dihydro-pyridine-3-carboxylic acid [4-([1,3]dioxolo[4,5-g]quinazolin-8-yloxy)-3-fluoro-phenyl]-amide] | – | – | – | –
31407 | 35 | 32582 and 32035 | 36 % Control and 34 % Control | – | – | – | – | O=C(Nc1ccc(Oc2ccnc3cc4c(cc23)OCCOCCOCCO4)c(F)c1)c1cccn(-c2ccc(F)cc2)c1=O [Example 11, 1-(4-Fluoro-phenyl)-2-oxo-1,2-dihydro-pyridine-3-carboxylic acid [3-fluoro-4-(7,8,10,11,13,14-hexahydro-6,9,12,15-tetraoxa-1-aza-cyclododeca[b]naphthalen-4-yloxy)-phenyl]-amide] | – | – | – | –
28866 | 25 | 30524 and 29012 | 28 % Control and 21 % Control | – | – | – | 188 to 190 | O=C(Nc1ccc(Oc2ccnc3cc4c(cc23)OCCOCCOCCO4)c(F)c1)c1c[nH]cc(-c2ccc(F)cc2)c1=O [Example 10, 5-(4-Fluoro-phenyl)-4-oxo-1,4-dihydro-pyridine-3-carboxylic acid [3-fluoro-4-(7,8,10,11,13,14-hexahydro-6,9,12,15-tetraoxa-1-aza-cyclododeca[b]naphthalen-4-yloxy)-phenyl]-amide] | – | – | – | –
